Like-named read-outs stand apart in the source and are kept apart here. Starred links: 1 amine or outer side, 2 acyl side, 3 side chain; linkers in the order of their positions; H or OH if unused. Non-standard residues stand in square brackets, D forms with d. Residues, ends and D or L forms follow the SMILES beside them. *: point of attachment. Adamantane1carbonyl = O=C(C12CC3CC(CC(C3)C1)C2)*; ACHC(1S,2R) = O=C([C@H]1CCCC[C@H]1N[*:1])[*:2]; NH((S)CH(Me)CH2NMe2) = C[C@@H](CN(C)C)N*; NH(1-CH2NMe2-cBu) = CN(C)CC1(N*)CCC1; Gly(octyl) = CCCCCCCC[C@H](N)C(=O)O; Oxazole4CO(2-Me) = Cc1nc(C(=O)*)co1; X16 = COc1ccc2cc(C(=O)*)c(=O)oc2c1; X19 = O=C(c1ccnc2cc(Cl)ccc12)*; X17 = C[C@@H](CN1CCOCC1)N*; X22 = CC1CC(C)CN(CCN*)C1; Hexanoyl = CCCCCC(=O)*; Aib = CC(C)(N)C(=O)O; Bz = O=C(c1ccccc1)*; βAla = NCCC(=O)O
Key:
[1] = test system: Trypanosoma brucei rhodesiense (STIB 900 strain); test: Alamar Blue assay against Trypanosoma brucei rhodesiense grown in axenic medium; type: cell-based; settings: In vitro inhibition, read-out: T.b.rhod.
Summary of the method: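 T. b. rhodesiense STIB 900 cultured in axenic medium and exposed to samples in an Alamar Blue viability assay, run in triplicate. IC50 calculated from the readout; melarsoprol served as reference drug.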

[2] = test system: Trypanosoma cruzi trypomastigote forms (Tulahuen strain); test: Intracellular Trypanosoma cruzi assay in L6-cells, beta-galactosidase/CPRG readout; type: cell-based; settings: In vitro inhibition, read-out: T.cruzi.
Summary of the method: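 L6 rat myoblasts infected with Tulahuen C2C4 LacZ T. cruzi; after incubation, CPRG/Nonidet substrate added and colour developed 2–6 h. Absorbance at 540 nm; IC50 calculated; triplicate tests.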

[3] = test system: Axenically grown Leishmania donovani amastigotes (strain MHOM/ET/67/L82); test: Axenic Leishmania donovani amastigote resazurin assay; type: cell-based; settings: In vitro inhibition, read-out: L.don. ax
Summary of the method: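 Strain MHOM/ET/67/L82 amastigotes grown axenically and tested in triplicate by resazurin assay. Plates developed 2-4 hours, fluorescence read at 536 nm excitation/588 nm emission and expressed as percentage of negative control.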

[4] = test system: intracellular Leishmania donovani (L.don. InMac); test: Intracellular Leishmania donovani assay (L.don. InMac); type: cell-based; settings: In vitro inhibition
Text: (§1) Tests were done in triplicate.

Plasmodium falciparum = test: 3H-hypoxanthine incorporation assay against Plasmodium falciparum; type: cell-based; settings: In vitro inhibition, read-out: P.falc NF5
Protocol: as §1
IC50 values were calculated by linear interpolation.

[5] = Cytotoxicity assay on L6-cells (Alamar Blue); settings: rat, Cytotox L6, Cytotoxicity against rat myoblast cells (L6)

Row | Compound | IC50 [1] | IC50 [2] | IC50 [3] | IC50 [4] | IC50 (Plasmodium falciparum) | IC50 at 70 h [5] | IC50 ([3]; axenic Leishmania donovani)
1 | CCCCCCCC[C@H](NC(=O)[C@@H]1CCCN1C(=O)c1ccccc1)C(=O)N[C@@H](CC(C)C)C(=O)NC(C)(C)C(=O)N[C@@H](CC(C)C)C(=O)N[C@@H](CC(C)C)C(=O)NC(C)(C)C(=O)NC(C)(C)C(=O)NCCC(=O)N[C@@H](C)CN(C)C [Compound 5649, (2S)-2-{[(2S)-1-benzoylpyrrolidin-2-yl]formamido}-N-[(1S)-1-[(1-{[(1S)-1-{[(1S)-1-{[1-({1-[(2-{[(2S)-1-(dimethylamino)propan-2-yl]carbamoyl}ethyl)carbamoyl]-1-methylethyl}carbamoyl)-1-methylethyl]carbamoyl}-3-methylbutyl]carbamoyl}-3-methylbutyl]carbamoyl}-1-methylethyl)carbamoyl]-3-methylbutyl]decanamide] (Bz-P[Gly(octyl)]L[Aib]LL[Aib][Aib][βAla]-{NH((S)CH(Me)CH2NMe2)}) | 0.7 nM | 8.8 nM | 3.5 nM | 27.2 nM | 2.1 nM | – | –
2 | CCCCCCCC[C@H](NC(=O)[C@@H]1CCCN1C(=O)c1ccnc2cc(Cl)ccc12)C(=O)N[C@@H](CC(C)C)C(=O)NC(C)(C)C(=O)N[C@@H](CC(C)C)C(=O)N[C@@H](CC(C)C)C(=O)NC(C)(C)C(=O)NC(C)(C)C(=O)NCCC(=O)N[C@@H](C)CN(C)C [Compound 5768, (2S)-2-{[(2S)-1-(7-chloroquinoline-4-carbonyl)pyrrolidin-2-yl]formamido}-N-[(1S)-1-[(1-{[(1S)-1-{[(1S)-1-{[1-({1-[(2-{[(2S)-1-(dimethylamino)propan-2-yl]carbamoyl}ethyl)carbamoyl]-1-methylethyl}carbamoyl)-1-methylethyl]carbamoyl}-3-methylbutyl]carbamoyl}-3-methylbutyl]carbamoyl}-1-methylethyl)carbamoyl]-3-methylbutyl]decanamide] (X19-P[Gly(octyl)]L[Aib]LL[Aib][Aib][βAla]-{NH((S)CH(Me)CH2NMe2)}) | 8.7 nM | 373 nM | 33.5 nM | 257 nM | 24.5 nM | – | –
3 | CCCCCCCC[C@H](NC(=O)[C@@H]1CCCN1C(=O)c1cc2ccc(OC)cc2oc1=O)C(=O)N[C@@H](CC(C)C)C(=O)NC(C)(C)C(=O)N[C@@H](CC(C)C)C(=O)N[C@@H](CC(C)C)C(=O)NC(C)(C)C(=O)NC(C)(C)C(=O)NCCC(=O)N[C@@H](C)CN(C)C [Compound 5769, (2S)-N-[(1S)-1-[(1-{[(1S)-1-{[(1S)-1-{[1-({1-[(2-{[(2S)-1-(dimethylamino)propan-2-yl]carbamoyl}ethyl)carbamoyl]-1-methylethyl}carbamoyl)-1-methylethyl]carbamoyl}-3-methylbutyl]carbamoyl}-3-methylbutyl]carbamoyl}-1-methylethyl)carbamoyl]-3-methylbutyl]-2-{[(2S)-1-(7-methoxy-2-oxo-2H-chromene-3-carbonyl)pyrrolidin-2-yl]formamido}decanamide] (X16-P[Gly(octyl)]L[Aib]LL[Aib][Aib][βAla]-{NH((S)CH(Me)CH2NMe2)}) | 2.8 nM | 167 nM | 8.1 nM | 216 nM | 5.3 nM | – | –
4 | CCCCCCCC[C@H](NC(=O)[C@@H]1CCCN1C(=O)C12CC3CC(CC(C3)C1)C2)C(=O)N[C@@H](CC(C)C)C(=O)NC(C)(C)C(=O)N[C@@H](CC(C)C)C(=O)N[C@@H](CC(C)C)C(=O)NC(C)(C)C(=O)NC(C)(C)C(=O)NCCC(=O)N[C@@H](C)CN(C)C [Compound 5770, (2S)-2-{[(2S)-1-(adamantane-1-carbonyl)pyrrolidin-2-yl]formamido}-N-[(1S)-1-[(1-{[(1S)-1-{[(1S)-1-{[1-({1-[(2-{[(2S)-1-(dimethylamino)propan-2-yl]carbamoyl}ethyl)carbamoyl]-1-methylethyl}carbamoyl)-1-methylethyl]carbamoyl}-3-methylbutyl]carbamoyl}-3-methylbutyl]carbamoyl}-1-methylethyl)carbamoyl]-3-methylbutyl]decanamide] (Adamantane1carbonyl-P[Gly(octyl)]L[Aib]LL[Aib][Aib][βAla]-{NH((S)CH(Me)CH2NMe2)}) | 0.6 nM | 101 nM | 1 nM | 338 nM | 3.3 nM | – | –
5 | CCCCCCCC[C@H](NC(=O)[C@@H]1CCCN1C(=O)CCCCC)C(=O)N[C@@H](CC(C)C)C(=O)NC(C)(C)C(=O)N[C@@H](CC(C)C)C(=O)N[C@@H](CC(C)C)C(=O)NC(C)(C)C(=O)NC(C)(C)C(=O)NCCC(=O)NCCN1CC(C)CC(C)C1 (stereo partly drawn) [Compound 5885, (2S)-N-[(1S)-1-[(1-{[(1S)-1-{[(1S)-1-{[1-({1-[(2-{[2-(3,5-dimethylpiperidin-1-yl)ethyl]carbamoyl}ethyl)carbamoyl]-1-methylethyl}carbamoyl)-1-methylethyl]carbamoyl}-3-methylbutyl]carbamoyl}-3-methylbutyl]carbamoyl}-1-methylethyl)carbamoyl]-3-methylbutyl]-2-{[(2S)-1-hexanoylpyrrolidin-2-yl]formamido}decanamide] (Hexanoyl-P[Gly(octyl)]L[Aib]LL[Aib][Aib][βAla]-X22) | 0.2 nM | 42600 nM | 46800 nM | – | 0.9 nM | 45.6 nM | –
6 | CCCCCCCC[C@H](NC(=O)[C@@H]1CCCN1C(=O)CCCCC)C(=O)N[C@@H](CC(C)C)C(=O)NC(C)(C)C(=O)N[C@@H](CC(C)C)C(=O)N[C@@H](CC(C)C)C(=O)NC(C)(C)C(=O)NC(C)(C)C(=O)NCCC(=O)N[C@@H](C)CN1CCOCC1 [Compound 5981, (2S)-2-{[(2S)-1-hexanoylpyrrolidin-2-yl]formamido}-N-[(1S)-3-methyl-1-[(1-methyl-1-{[(1S)-3-methyl-1-{[(1S)-3-methyl-1-{[1-methyl-1-({1-methyl-1-[(2-{[(2S)-1-(morpholin-4-yl)propan-2-yl]carbamoyl}ethyl)carbamoyl]ethyl}carbamoyl)ethyl]carbamoyl}butyl]carbamoyl}butyl]carbamoyl}ethyl)carbamoyl]butyl]decanamide] (Hexanoyl-P[Gly(octyl)]L[Aib]LL[Aib][Aib][βAla]-X17) | 17.9 nM | 723 nM | 0.2 nM | – | 35800 nM | 1080 nM | –
7 | CCCCCCCC[C@H](NC(=O)[C@H]1CCCC[C@H]1NC(=O)c1ccccc1)C(=O)N[C@@H](CC(C)C)C(=O)NC(C)(C)C(=O)N[C@@H](CC(C)C)C(=O)N[C@@H](CC(C)C)C(=O)NC(C)(C)C(=O)NC(C)(C)C(=O)NCCC(=O)N[C@@H](C)CN(C)C [Compound 5982, N-[(1R,2S)-2-{[(1S)-1-{[(1S)-1-[(1-{[(1S)-1-{[(1S)-1-{[1-({1-[(2-{[(2S)-1-(dimethylamino)propan-2-yl]carbamoyl}ethyl)carbamoyl]-1-methylethyl}carbamoyl)-1-methylethyl]carbamoyl}-3-methylbutyl]carbamoyl}-3-methylbutyl]carbamoyl}-1-methylethyl)carbamoyl]-3-methylbutyl]carbamoyl}nonyl]carbamoyl}cyclohexyl]benzamide] (Bz-[ACHC(1S,2R)][Gly(octyl)]L[Aib]LL[Aib][Aib][βAla]-{NH((S)CH(Me)CH2NMe2)}) | 29200 nM | 47.1 nM | 0.9 nM | – | 12100 nM | 573 nM | –
8 | CCCCCCCC[C@H](NC(=O)[C@@H]1CCCN1C(=O)c1coc(C)n1)C(=O)N[C@@H](CC(C)C)C(=O)NC(C)(C)C(=O)N[C@@H](CC(C)C)C(=O)N[C@@H](CC(C)C)C(=O)NC(C)(C)C(=O)N[C@@H](CC(C)C)C(=O)NCCC(=O)NC1(CN(C)C)CCC1 [Compound 6329, (2S)-N-[(1S)-1-[(1-{[(1S)-1-{[(1S)-1-[(1-{[(1S)-1-{[2-({1-[(dimethylamino)methyl]cyclobutyl}carbamoyl)ethyl]carbamoyl}-3-methylbutyl]carbamoyl}-1-methylethyl)carbamoyl]-3-methylbutyl]carbamoyl}-3-methylbutyl]carbamoyl}-1-methylethyl)carbamoyl]-3-methylbutyl]-2-{[(2S)-1-(2-methyl-1,3-oxazole-4-carbonyl)pyrrolidin-2-yl]formamido}decanamide] ({Oxazole4CO(2-Me)}-P[Gly(octyl)]L[Aib]LL[Aib]L[βAla]-{NH(1-CH2NMe2-cBu)}) | 0.08 nM | 4.6 nM | 0.17 nM | – | 0.17 nM | 398 nM | –
9 | CCCCCCCC[C@H](NC(=O)[C@@H]1CCCN1C(=O)c1coc(C)n1)C(=O)N[C@@H](CC(C)C)C(=O)NC(C)(C)C(=O)NC(C)(C)C(=O)N[C@@H](CC(C)C)C(=O)N[C@@H](CC(C)C)C(=O)NC(C)(C)C(=O)NC(C)(C)C(=O)NCCC(=O)NC1(CN(C)C)CCC1 [Compound 6330, (2S)-N-[(1S)-1-({1-[(1-{[(1S)-1-{[(1S)-1-({1-[(1-{[2-({1-[(dimethylamino)methyl]cyclobutyl}carbamoyl)ethyl]carbamoyl}-1-methylethyl)carbamoyl]-1-methylethyl}carbamoyl)-3-methylbutyl]carbamoyl}-3-methylbutyl]carbamoyl}-1-methylethyl)carbamoyl]-1-methylethyl}carbamoyl)-3-methylbutyl]-2-{[(2S)-1-(2-methyl-1,3-oxazole-4-carbonyl)pyrrolidin-2-yl]formamido}decanamide] ({Oxazole4CO(2-Me)}-P[Gly(octyl)]L[Aib][Aib]LL[Aib][Aib][βAla]-{NH(1-CH2NMe2-cBu)}) | 0.2 nM | 36.3 nM | 0.72 nM | – | 0.24 nM | 1200 nM | –
10 | CCCCCCCCCCCCCCCCOP(=O)([O-])OCC[N+](C)(C)C [Miltefosine] | – | – | – | 1200 nM | – | – | 118 nM
